# Data reported in patent publication US12491170B2, “Stable treprostinil prodrugs” (United Therapeutics Corporation, priority 2020, dated 2025).
# Columns and labels:
# [1] = Hydrolysis of prodrugs to treprostinil at pH 6, 7, 8 and 40 C; type: physicochemical
# Excerpt: Tables 24, 25 and 26 present data for hydrolysis of selected treprostinil prodrugs at pH 6, 7 and 8, respectively, and 40 C.
# [2] = Stability in liver microsomes, human; conditions: Liver Microsomes, Human
# Procedure: (§1) Mixed-gender human liver microsomes, male Sprague-Dawley rat liver microsomes, and male Beagle dog liver microsomes were purchased from XenoTech. The reaction mixture, minus NADPH, was prepared as described below. […] An aliquot of the reaction mixture (without cofactor) was equilibrated in a shaking water bath at 37° C. for 5 minutes. The reaction was initiated by the addition of cofactor, and the mixture was incubated in a shaking water bath at 37° C. Aliquots (200 μL) were withdrawn at 0, 10, 20, 30, and 60 minutes. Test article samples were immediately combined with 400 μL of ice-cold acetonitrile (ACN) to terminate the reaction. […] The samples were then mixed and centrifuged to precipitate proteins. Aliquots of the supernatant were removed, diluted 1:1 into distilled water containing internal standard, and analyzed by LC-MS/MS against calibration standards prepared in a matched matrix. All samples were analyzed for the dosed prodrugs as well as the drug, treprostinil. The test article concentration was compared to the concentration at time 0 to determine the percent of test article remaining at each time point. Half-lives and clearance were calculated using GraphPad software, fitting to a single-phase exponential decay equation.
# (§2) • Liver Microsomes 0.5 mg/mL • NADPH (cofactor) 1 mM • Potassium Phosphate, pH 7.4 100 mM • Magnesium Chloride 5 mM • Test Article 1 μM
# [3] = Stability in liver microsomes, rat; conditions: Liver Microsomes, Rat
# Procedure: as §1, §2
# [4] = Stability in liver microsomes, dog; conditions: Liver Microsomes, Dog
# Procedure: as §1, §2
# [5] = Stability in cryopreserved hepatocytes, human; conditions: Hepatocytes, Human
# Procedure: (§3) Mixed-gender human cryopreserved hepatocytes, male Sprague-Dawley rat cryopreserved hepatocytes, and male Beagle dog cryopreserved hepatocytes were purchased from XenoTech. The hepatocytes were thawed and prepared according to the vendor's instructions, pooled into Krebs Henseleit buffer (KHB, pH 7.4), and kept on ice prior to the experiments. […] The final DMSO content in the incubation mixture was ≤0.1%. […] Aliquots of the test article were withdrawn (n=1) at 0, 15, 30, 60, and 120 minutes. […] Aliquots of 7-HC were withdrawn (n=1) at 0 and 15 minutes. The reaction was immediately terminated by adding two volumes of ice-cold acetonitrile (ACN) to the test article samples and three volumes of ACN containing internal standard to the positive control samples. The samples were then mixed and centrifuged to precipitate proteins. An aliquot of the supernatant was then diluted with water and analyzed by LC-MS/MS against calibration standards prepared in a matched matrix. […] All test article samples were analyzed for the dosed prodrugs as well as the drug, treprostinil. The test article concentration was compared to the concentration at time 0 to determine the percent of test article remaining at each time point. Half-lives and clearance values were calculated using GraphPad software, fitting to a single-phase exponential decay equation.
# [6] = Stability in cryopreserved hepatocytes, rat; conditions: Hepatocytes, Rat
# Procedure: as §3
# [7] = Stability in cryopreserved hepatocytes, dog; conditions: Hepatocytes, Dog
# Procedure: as §3
# [8] = Stability in human subcutaneous skin homogenate; conditions: Skin Homogenate, Human
# Procedure: The pool of skin homogenate was prepared by combining equal volumes of three lots that were tested in the initial skin homogenate lot assessment experiments.
# A stock solution of calcein-AM was first prepared at 5 mM in DMSO, followed by a serial dilution into methanol at a concentration of 100 μM. 495 μL of skin homogenate was thawed and warmed to 37° C. A 5 μL aliquot of the 100 μM calcein-AM solution was spiked into the skin homogenate, for a final calcein-AM dosing concentration of 1 μM. After briefly mixing, 150 μL aliquots were removed in triplicate and transferred to 96-well Falcon plates. The plates were placed onto a Thermomixer and maintained at 37° C., with gentle shaking for the duration of the experiment. At each time point (0, 15, 30, 60, and 120 minutes), the plate was removed from the Thermomixer and transferred to a FLUOstar® plate reader, and the formation of calcein (Sigma) was monitored by fluorescence (490/515 nm). Calibration standards of calcein were prepared in distilled water by serial dilutions of a calcein DMSO stock at final concentrations ranging from 1 μM to 1 nM. All samples and standards were read concurrently (Table 13).
# For each of the test articles, 495 μL of skin homogenate was added to triplicate centrifuge tubes. To each tube, 5 μL of a 100 μM solution of test article was added, for a final test article dosing concentration of 1 μM. The tubes were placed onto a Thermomixer and maintained at 37° C. with gentle shaking for the duration of the experiment. At each time point (0, 30, 60, and 120 minutes), a 100 μL aliquot was removed from each tube and combined with 200 μL of acetonitrile to stop the stability reaction. The tubes were mixed and centrifuged at 3000 rpm for 10 minutes. Aliquots of supernatant were removed and diluted 1:1 with distilled water containing internal standard (2 μM treprostinil-d4). Calibration standards for the treprostinil analysis were prepared for each test article in a surrogate matrix (supernatant from a mixture of 1:2 human plasma:acetonitrile), at concentrations ranging from 1 μM to 1 nM. Calibration standards were also diluted 1:1 with distilled water containing internal standard. The disappearance of each individual test article was monitored, as well as the formation of treprostinil (Table 14 and Table 15).
# [9] = AUC of treprostinil concentration 0-120 min
# [10] = treprostinil formed from test article dosed, 0 min
# [11] = treprostinil formed from test article dosed, 15 min
# [12] = treprostinil formed from test article dosed, 30 min
# [13] = treprostinil formed from test article dosed, 60 min
# [14] = treprostinil formed from test article dosed, 120 min
compound,measurement,setting,value
CCCCCC(CCC1C(O)CC2Cc3c(cccc3OCC(=O)O)CC21)OC(=O)c1ccc(O)cc1 (centres unmarked) [Prodrug LXVIII],"Hydrolysis to treprostinil, % Area, t = 1 week","[1]; pH 6, 40 C.",0.00 % Area
same,"Hydrolysis to treprostinil, % Area, t = 2 weeks","[1]; pH 6, 40 C.",0.00 % Area
same,"Hydrolysis to treprostinil, % Area, t = 3 weeks","[1]; pH 6, 40 C.",0.00 % Area
same,"Hydrolysis to treprostinil, % Area, t = 1 week","[1]; pH 7, 40 C.",0.00 % Area
same,"Hydrolysis to treprostinil, % Area, t = 2 weeks","[1]; pH 7, 40 C.",0.00 % Area
same,"Hydrolysis to treprostinil, % Area, t = 3 weeks","[1]; pH 7, 40 C.",0.00 % Area
same,"Hydrolysis to treprostinil, % Area, t = 1 week","[1]; pH 8, 40 C.",0.00 % Area
same,"Hydrolysis to treprostinil, % Area, t = 2 weeks","[1]; pH 8, 40 C.",0.00 % Area
same,"Hydrolysis to treprostinil, % Area, t = 3 weeks","[1]; pH 8, 40 C.",0.00 % Area
CCCCCC(CCC1C(O)CC2Cc3c(cccc3OCC(=O)O)CC21)OC(=O)c1ccc(O)c(O)c1 (centres unmarked) [Prodrug LXVI],"Hydrolysis to treprostinil, % Area, t = 1 week","[1]; pH 6, 40 C.",0.47 % Area
same,"Hydrolysis to treprostinil, % Area, t = 2 weeks","[1]; pH 6, 40 C.",1.2 % Area
same,"Hydrolysis to treprostinil, % Area, t = 3 weeks","[1]; pH 6, 40 C.",1.9 % Area
same,"Hydrolysis to treprostinil, % Area, t = 1 week","[1]; pH 7, 40 C.",0.05 % Area
same,"Hydrolysis to treprostinil, % Area, t = 2 weeks","[1]; pH 7, 40 C.",1.0 % Area
same,"Hydrolysis to treprostinil, % Area, t = 3 weeks","[1]; pH 7, 40 C.",1.5 % Area
same,"Hydrolysis to treprostinil, % Area, t = 1 week","[1]; pH 8, 40 C.",0.73 % Area
same,"Hydrolysis to treprostinil, % Area, t = 2 weeks","[1]; pH 8, 40 C.",1.6 % Area
same,"Hydrolysis to treprostinil, % Area, t = 3 weeks","[1]; pH 8, 40 C.",2.6 % Area
CCCCCC(CCC1C(O)CC2Cc3cccc(OCC(=O)O)c3CC21)OC(=O)CCC(=O)N1CCN(C)CC1 (centres unmarked) [XXXIV],Trep Concentration 0 min,[2]; 0 min,0 µM
same,Trep Concentration 10 min,[2]; 10 min,0 µM
same,Trep Concentration 20 min,[2]; 20 min,0 µM
same,Trep Concentration 30 min,[2]; 30 min,0 µM
same,Trep Concentration 60 min,[2]; 60 min,0 µM
same,AUC,[2]; treprostinil 0-60 min,0.00 µmol·min/L
same,Trep Concentration 0 min,[3]; 0 min,0 µM
same,Trep Concentration 10 min,[3]; 10 min,0 µM
same,Trep Concentration 20 min,[3]; 20 min,0.0132 µM
same,Trep Concentration 30 min,[3]; 30 min,0.0158 µM
same,Trep Concentration 60 min,[3]; 60 min,0.0224 µM
same,AUC,[3]; treprostinil 0-60 min,0.78 µmol·min/L
same,Trep Concentration 0 min,[4]; 0 min,0 µM
same,Trep Concentration 10 min,[4]; 10 min,0 µM
same,Trep Concentration 20 min,[4]; 20 min,0 µM
same,Trep Concentration 30 min,[4]; 30 min,0 µM
same,Trep Concentration 60 min,[4]; 60 min,0.0104 µM
same,AUC,[4]; treprostinil 0-60 min,0.16 µmol·min/L
same,AUC,[5]; [9],1.90 µmol·min/L
same,Trep Concentration (μM) 0 min,[5]; [10],0 µM
same,Trep Concentration (μM) 15 min,[5]; [11],0 µM
same,Trep Concentration (μM) 30 min,[5]; [12],0.0107 µM
same,Trep Concentration (μM) 60 min,[5]; [13],0.0174 µM
same,Trep Concentration (μM) 120 min,[5]; [14],0.0293 µM
same,AUC,[6]; [9],8.62 µmol·min/L
same,Trep Concentration (μM) 0 min,[6]; [10],0 µM
same,Trep Concentration (μM) 15 min,[6]; [11],0.023 µM
same,Trep Concentration (μM) 30 min,[6]; [12],0.0447 µM
same,Trep Concentration (μM) 60 min,[6]; [13],0.0915 µM
same,Trep Concentration (μM) 120 min,[6]; [14],0.105 µM
same,AUC,[7]; [9],1.30 µmol·min/L
same,Trep Concentration (μM) 0 min,[7]; [10],0 µM
same,Trep Concentration (μM) 15 min,[7]; [11],0 µM
same,Trep Concentration (μM) 30 min,[7]; [12],0.0101 µM
same,Trep Concentration (μM) 60 min,[7]; [13],0.0153 µM
same,Trep Concentration (μM) 120 min,[7]; [14],0.0127 µM
same,Trep Concentration 0 min,[8]; 0 min,0 µM
same,Trep Concentration 30 min,[8]; 30 min,0 µM
same,Trep Concentration 60 min,[8]; 60 min,0 µM
same,Trep Concentration 120 min,[8]; 120 min,0 µM
same,AUC,[8]; treprostinil 0-120 min,0.00 µmol·min/L
